One experiment concerns the target T1, ACAT (Rattus norvegicus, UniProt Q7TQM4).
T1 construct: Rat liver microsomes are used as the source of ACAT; from tissue; host or cells: rat liver microsomes
T1 sequence (Q7TQM4 1-524): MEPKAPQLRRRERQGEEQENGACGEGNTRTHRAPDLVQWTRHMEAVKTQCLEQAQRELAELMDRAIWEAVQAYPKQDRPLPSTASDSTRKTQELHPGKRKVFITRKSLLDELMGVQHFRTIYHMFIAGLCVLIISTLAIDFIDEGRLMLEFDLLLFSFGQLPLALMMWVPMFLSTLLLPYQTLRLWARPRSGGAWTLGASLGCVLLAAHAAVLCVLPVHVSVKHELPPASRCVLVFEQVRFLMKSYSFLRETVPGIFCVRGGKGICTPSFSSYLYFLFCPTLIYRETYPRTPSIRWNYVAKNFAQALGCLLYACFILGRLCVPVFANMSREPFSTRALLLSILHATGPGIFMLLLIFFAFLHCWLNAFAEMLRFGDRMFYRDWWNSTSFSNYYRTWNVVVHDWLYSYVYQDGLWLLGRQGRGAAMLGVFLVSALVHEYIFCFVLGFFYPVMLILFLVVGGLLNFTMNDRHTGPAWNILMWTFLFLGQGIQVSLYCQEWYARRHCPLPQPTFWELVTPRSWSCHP
Briefly: ACAT Assay (in vitro). The experiment is classed as biochemical. Conditions: for inhibition at 10 µM: Conc. 10 µM, negative = apparent stimulation, read-out: ACAT (in vitro) % Inhib.; for IC50: rat liver microsomes, read-out: ACAT (in vitro) IC50. In general terms: Microsomes from liver hold many membrane-bound enzymes, among them those of drug oxidation.

A further experiment relates to Hyperlipidemic Hamster. Briefly: In Vivo Assay of Hypolipidemic Agents Using the Hyperlipidemic Hamster. The conditions noted are these: Mesocricetus auratus, po, 168 h, 7 days, percent change versus control, negative = lowering; for change in vivo at 50 mg/kg: 50 mg/kg once daily oral; for change in vivo at 5 mg/kg: 5 mg/kg once daily oral; for change in vivo at 10 mg/kg: 10 mg/kg once daily oral; for change in vivo at 25 mg/kg: 25 mg/kg once daily oral; for change in vivo at 85 mg/kg: 85 mg/kg once daily oral. Summed up: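 Test compound in corn oil was given orally once daily for seven days, starting with a 0.5% cholesterol diet, to groups of six hamsters; corn oil alone served as control. Plasma and hepatic lipids were analysed after decapitation. Results are expressed as percent change relative to control.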

Where [1] appears, read: read-out: % Reduction (in vivo) Cholest. Esters.
The mark [2] stands for this setting: read-out: % Reduction (in vivo) Serum Cholest.

The structures appear in SMILES notation. Like-named read-outs stand apart in the source and are kept apart here.

Method for ACAT: This assay measures the activity of ACAT by measuring the ACAT-mediated transfer of tritiated oleic acid from acyl-CoA to cholesterol to give labelled cholesteryl oleate. Rat liver microsomes are used as the source of ACAT. Assays are performed in round bottom microtiterplates using a total incubation volume of 50 μL. […] The microtiterplate is then floated on the surface of a 37° C. water bath for fifteen minutes. Incubations are started by the addition of 3 μL ^3 H-acyl CoA (1 μCi/well, final concentration of 10 μM acyl CoA). The plate is then returned to the water bath for 15 minutes. The incubations are then terminated by application of 15 μL from each incubation to individual lanes on a thin layer plate (Silica Gel GF 20×20 cm). Standards are applied to several lanes so that the cholesteryl ester band can be identified. After drying, the plates am eluted with 90:10:1 petroleum ether:diethyl ether:acetic acid. The standards am visualized via iodine vapor, and the regions corresponding to cholesteryl ester are scraped into 7 mL scintillation vials. 4 mL of scintillant are added to each vial, and the radioactivity quantified. Background count is determined by the boiled controls. Full activity is determined by activity in the presence of vehicle. The percent inhibition is calculated by subtracting the background from both control and test samples, and the test value is calculated as a percentage of the control.
For the in vitro ACAT data, negative percent inhibition denotes apparent stimulation,while positive numbers denote inhibition.

As for `COc1ccc(N2C(=O)[C@@H](CCCc3ccccc3)[C@@H]2c2cccs2)cc1` (relative stereo) [Example 1BQ], on ACAT, the inhibition at 10 µM is 35%. Moreover, the change in vivo at 50 mg/kg with Hyperlipidemic Hamster (setting [1]) was -17%; in the experiment with Hyperlipidemic Hamster (setting [2]) it was 0%.
`COc1ccc(N2C(=O)[C@H](CCCc3ccccc3)[C@@H]2c2ccccc2)cc1` (relative stereo) [Example 1B]: the inhibition at 10 µM on ACAT is 28%. For the same compound, the change in vivo at 50 mg/kg in the experiment on Hyperlipidemic Hamster (setting [1]) and with Hyperlipidemic Hamster (setting [2]) was 0% each time.
With `COc1ccc([C@H]2[C@@H](CCc3ccccc3)C(=O)N2c2ccc(OC)cc2)cc1` (relative stereo) [Example 1CC], the inhibition at 10 µM on ACAT was 46%. Also, the change in vivo at 50 mg/kg in the experiment on Hyperlipidemic Hamster (setting [1]) and in the experiment on Hyperlipidemic Hamster (setting [2]) was 0% in each case.
With `COc1ccc([C@H]2[C@@H](CCOc3ccccc3)C(=O)N2c2ccc(OC)cc2)cc1` (relative stereo) [Example 1CD], on ACAT, the inhibition at 10 µM is 84% and the IC50 (as a rule, the concentration that inhibits the measured activity by half) worked out at 7 µM. Besides, in the experiment on Hyperlipidemic Hamster (setting [1]), the change in vivo at 50 mg/kg is -23%. Also, the change in vivo at 50 mg/kg with Hyperlipidemic Hamster (setting [2]) was found to be 0%.
As to `COc1ccc([C@H]2[C@@H](CCCCCCc3ccccc3)C(=O)N2c2ccc(OC)cc2)cc1` (relative stereo) [Example 1CE], the inhibition at 10 µM on ACAT worked out at 15%. Moreover, the change in vivo at 50 mg/kg in the experiment with Hyperlipidemic Hamster (setting [1]) is -17%; with Hyperlipidemic Hamster (setting [2]), -19%.
Consider `COc1ccc([C@H]2[C@@H](CCCC3CCCCC3)C(=O)N2c2ccc(OC)cc2)cc1` (relative stereo) [Example 1CF], for which the inhibition at 10 µM at ACAT was found to be 53%. Moreover, the change in vivo at 50 mg/kg in the experiment with Hyperlipidemic Hamster (setting [1]) is -47%; in the experiment on Hyperlipidemic Hamster (setting [2]) it was -23%.
Consider `COc1ccc([C@H]2[C@@H](CCOc3ccc(F)cc3)C(=O)N2c2ccc(OC)cc2)cc1` (relative stereo) [Example 1CG], for which, on ACAT, the inhibition at 10 µM came to 8%. Also, the change in vivo at 50 mg/kg in the experiment with Hyperlipidemic Hamster (setting [1]) was -61%; with Hyperlipidemic Hamster (setting [2]) it was -30%.
For `COc1ccc([C@H]2[C@@H](CCCCc3ccccc3)C(=O)N2c2ccc(OC)cc2)cc1` (relative stereo) [Example 1CI] the same measures were 26%, -23% and -8%.
For `CC[C@@]1(c2ccccc2)C(=O)N(c2ccc(OC)cc2)[C@H]1c1ccc(OC)cc1` (relative stereo) [Example 1CK], the inhibition at 10 µM on ACAT was -12%. Moreover, the figures for the change in vivo at 50 mg/kg in the experiment on Hyperlipidemic Hamster (setting [1]) and with Hyperlipidemic Hamster (setting [2]) were -28% and 0%, respectively.
Regarding `CCCCCCCCCC[C@@H]1C(=O)N(c2ccc(OC)cc2)[C@@H]1c1ccc(OC)cc1` (relative stereo) [Example 1CL], the inhibition at 10 µM at ACAT amounted to 89%. Further, the values for the change in vivo at 50 mg/kg in the experiment on Hyperlipidemic Hamster (setting [1]) and with Hyperlipidemic Hamster (setting [2]) were -18% and 0%, respectively.
`COc1ccc(N2C(=O)[C@H](CCCc3ccccc3)[C@@H]2c2ccc3c(c2)OCO3)cc1` (relative stereo) [Example 1CN]: at ACAT, the inhibition at 10 µM is -28%. In addition, the change in vivo at 50 mg/kg with Hyperlipidemic Hamster (setting [1]) and in the experiment with Hyperlipidemic Hamster (setting [2]) was 0% in each case.
As to `COc1ccc(N2C(=O)[C@@H](CCCc3ccccc3)[C@@H]2c2ccccc2)cc1` (relative stereo) [Example 1C], the inhibition at 10 µM on ACAT turned out to be 22%. The change in vivo at 50 mg/kg was -15% with Hyperlipidemic Hamster (setting [1]) and -6% with Hyperlipidemic Hamster (setting [2]).
In the case of `COc1ccc(N2C(=O)[C@@H](CCc3ccccc3)[C@H]2c2ccccc2)cc1` (relative stereo) [Example 1D], the inhibition at 10 µM at ACAT was 39%. Also, the change in vivo at 50 mg/kg in the experiment on Hyperlipidemic Hamster (setting [1]) and with Hyperlipidemic Hamster (setting [2]) was 0% throughout.
`COc1ccc(N2C(=O)[C@@H](CCCc3ccccc3)[C@@H]2c2ccc([N+](=O)[O-])cc2)cc1` (relative stereo) [Example 1G]: the inhibition at 10 µM on ACAT came out at 21%. Moreover, the results for the change in vivo at 50 mg/kg in the experiment with Hyperlipidemic Hamster (setting [1]) and in the experiment with Hyperlipidemic Hamster (setting [2]) were 0% and -11%, respectively.
As for `COc1ccc(N2C(=O)[C@H](CCCc3ccccc3)[C@@H]2c2ccc([N+](=O)[O-])cc2)cc1` (relative stereo) [Example 1H], the inhibition at 10 µM at ACAT turned out to be 57%. Also, the change in vivo at 50 mg/kg was -51% in the experiment on Hyperlipidemic Hamster (setting [1]) and -21% with Hyperlipidemic Hamster (setting [2]).
For the compound `COc1ccc(N2C(=O)[C@@H](CCCc3ccccc3)[C@@H]2C=Cc2ccccc2)cc1` (relative stereo) [Example 1K], the inhibition at 10 µM at ACAT was -70%. Moreover, the change in vivo at 50 mg/kg in the experiment on Hyperlipidemic Hamster (setting [1]) and in the experiment with Hyperlipidemic Hamster (setting [2]) was 0% throughout.
As for `COc1ccc(N2C(=O)[C@@H](CCCc3ccccc3)[C@H]2c2ccc(O)cc2)cc1` (relative stereo) [Example 1L], the inhibition at 10 µM on ACAT was 20%. Moreover, in the experiment with Hyperlipidemic Hamster (setting [1]), the change in vivo at 5 mg/kg is -30%, the change in vivo at 10 mg/kg was -34% and the change in vivo at 50 mg/kg is -75%. In the experiment on Hyperlipidemic Hamster (setting [2]), the change in vivo at 5 mg/kg was -25%, the change in vivo at 10 mg/kg is -22% and the change in vivo at 50 mg/kg was -31%.
Take `COc1ccc(C=C[C@H]2[C@H](CCCc3ccccc3)C(=O)N2c2ccc(OC)cc2)cc1` (relative stereo) [Example 1M]: on ACAT, the inhibition at 10 µM turned out to be 80% and the IC50 is 7 µM. Also, in the experiment with Hyperlipidemic Hamster (setting [1]), the change in vivo at 25 mg/kg is -31%. Besides, in the experiment on Hyperlipidemic Hamster (setting [2]), the change in vivo at 25 mg/kg was -11%.
Regarding `COc1ccc(N2C(=O)[C@@H](CCCc3ccccc3)[C@H]2c2cccc(OC)c2)cc1` (relative stereo) [Example 1P], on ACAT, the inhibition at 10 µM worked out at 39%. For the same compound, the change in vivo at 50 mg/kg in the experiment with Hyperlipidemic Hamster (setting [1]) was -54%; in the experiment with Hyperlipidemic Hamster (setting [2]), -19%.
Turning to `CCCCCCCCCC[C@H]1C(=O)N(c2ccc(OC)cc2)[C@H]1c1ccccc1` (relative stereo) [Example 1S], the inhibition at 10 µM on ACAT is -19%. Also, the change in vivo at 85 mg/kg with Hyperlipidemic Hamster (setting [1]) was -32%; in the experiment on Hyperlipidemic Hamster (setting [2]), 0%.
As for `CCCCCCCCCC[C@@H]1C(=O)N(c2ccc(OC)cc2)[C@H]1c1ccccc1` (relative stereo) [Example 1T], at ACAT, the inhibition at 10 µM was -11%. Further, the change in vivo at 50 mg/kg with Hyperlipidemic Hamster (setting [1]) and in the experiment on Hyperlipidemic Hamster (setting [2]) was 0% each time.
`COc1ccc(N2C(=O)[C@@](Cc3ccccc3)(c3ccccc3)[C@@H]2c2ccccc2)cc1` (relative stereo) [Example 1X]: the inhibition at 10 µM at ACAT is 9%. The change in vivo at 50 mg/kg in the experiment with Hyperlipidemic Hamster (setting [1]) is 0%; with Hyperlipidemic Hamster (setting [2]), -12%.
Take `CC[C@@]1(c2ccccc2)C(=O)N(c2ccc(OC)cc2)[C@H]1c1ccccc1` (relative stereo) [Example 1Z]: the inhibition at 10 µM on ACAT is -15%. The change in vivo at 50 mg/kg was -39% in the experiment on Hyperlipidemic Hamster (setting [1]) and -15% in the experiment with Hyperlipidemic Hamster (setting [2]).
For `CC[C@@]1(CCCc2ccccc2)C(=O)N(c2ccc(OC)cc2)[C@H]1c1ccccc1` (relative stereo) [Example 3A], the inhibition at 10 µM at ACAT is 33%. Besides, the results for the change in vivo at 50 mg/kg in the experiment on Hyperlipidemic Hamster (setting [1]) and in the experiment with Hyperlipidemic Hamster (setting [2]) were -29% and -12%, respectively.
For `COc1ccc(N2C(=O)[C@](CCCc3ccccc3)(c3ccccc3)[C@@H]2c2ccccc2)cc1` (relative stereo) [Example 3B], the inhibition at 10 µM at ACAT came out at 84%. Moreover, the change in vivo at 50 mg/kg is -16% in the experiment with Hyperlipidemic Hamster (setting [1]) and -11% with Hyperlipidemic Hamster (setting [2]).
Regarding `CC[C@@]1(CCCc2ccccc2)C(=O)N(c2c(OC)cc(OC)cc2OC)[C@H]1c1ccccc1` (relative stereo) [Example 3D], at ACAT, the inhibition at 10 µM amounted to 42% and the IC50 stood at 12 µM. In addition, in the experiment with Hyperlipidemic Hamster (setting [1]), the change in vivo at 50 mg/kg was 0%. For the same compound, in the experiment with Hyperlipidemic Hamster (setting [2]), the change in vivo at 50 mg/kg came out at 0%.
On to `CC[C@]1(CCCc2ccccc2)C(=O)N(c2ccc(OC)cc2)[C@H]1c1ccccc1` (relative stereo) [Example 3E], for which the inhibition at 10 µM on ACAT was -24%. Also, the change in vivo at 50 mg/kg with Hyperlipidemic Hamster (setting [1]) and in the experiment on Hyperlipidemic Hamster (setting [2]) was 0% each time.
Consider `CC[C@]1(CCCc2ccccc2)C(=O)N(c2c(OC)cc(OC)cc2OC)[C@H]1c1ccccc1` (relative stereo) [Example 3F], for which, at ACAT, the inhibition at 10 µM worked out at 82%. Also, the values for the change in vivo at 50 mg/kg in the experiment with Hyperlipidemic Hamster (setting [1]) and with Hyperlipidemic Hamster (setting [2]) were -31% and 0%, respectively.

The values above are taken from patent US5688787A, “Substituted β-lactam compounds useful as hypochlesterolemic agents and processes for the preparation thereof” (priority 1996, dated 1997).
